Assays:
Type in all cases: in vivo, mouse
[1] = test system: wild-type and α1G −/− mice; assay: Thalamic field activity (depth electrodes) and epidural EEG after (RS)-baclofen in freely moving animals; conditions: 30 mg/kg i.p.
Protocol: To confirm the result of Example 6, the present inventors examined the field activity of thalamic nuclei using depth electrodes in freely moving animals. […] To examine the thalamic SWDs, the present inventors injected (RS)-baclofen i.p. at 30 mg/kg instead of the dose, i.e., 20 mg/kg, used previously (FIG. 4B). […] The administration of baclofen synchronized all thalamic activities into 2-3 Hz SWDs in wild-type nice (FIG. 5B, left). In the α1G −/− thalamus, however, baclofen reduced the amplitudes of peaks in a wide range of frequency, as if it caused general desynchronization (FIG. 5B, right).

[2] = test system: wild-type and α1G −/− mice; assay: SWD generation in epidural EEG after systemic injection of absence seizure-inducing agents; conditions: for SWD generation in epidural EEG: α1G −/− mice
Excerpt: To examine the role of α1G in the generation of SWDs in vivo, the present inventors systematically [“systemic” and “systematic” are different] injected into α1G −/− mice and wild-type mice either γ-butyrolactone, a prodrug of γ-hydroxybutyric acid, or (RS)-baclofen. Absence seizures induced by these drugs are characterized by bilaterally synchronous SWDs and have been associated with behavioral arrest, facial myoclonus, and vibrissal twitching.

[3] = test system: wild-type and α1G −/− mice; assay: Convulsive seizures induced by 4-AP (EEG and behavioral seizure score)
Excerpt: The present inventors tested whether the seizure resistance of α1G −/− mice was specific to absence seizures. […] The EEG pattern of these ictal discharges was quite different from that observed in the spike-and-wave seizures induced by baclofen or bicuculline.
The below scores grade the seizures according to behavioral seizures as monitored by video.
1: mild tremors of the head
2: whole body tremors with loss of postural control
3: erratic running, erratic jumping, or tonic-clonic movement of the limbs
4: tonic extension of the whole body or death

[4] = test system: wild-type and α1G −/− mice; assay: EEG recording of cortex and thalamus after injection of BMB; conditions: 10 mg/kg into the peritoneal cavity
Protocol: Systematic administration or focal injection of bicuculline into the cortex has been known to evoke SWDs mainly originating from the territory of the cortex (Steriade and Contreras, Journal of Neurophysiology, 1998, 80, 1439-55). To determine the role of α1G in the cortex-dependent mechanism of SWDs, the present inventors examined the EEG pattern after injection of BMB into the peritoneal cavity of mice at 10 mg/kg.
However, because of the complexity of the bicuculline-induced seizures, the present inventors could not conclude whether there is any quantitative difference in the amplitude of the SWDs or in the time lag of SWD occurrences for the two types of mice (i.e., wild-type and α1G −/−). […] Thus, it seems that the BMB-induced SWDs observed here are also associated with other types of generalized seizures.

NCC(CC(=O)O)c1ccc(Cl)cc1 (racemic) [(RS)-baclofen]
frequency of SWDs in epidural EEG ([1]; duration of SWDs significantly increased versus 20 mg/kg): 2-3 Hz | frequency of SWDs in thalamus (field recording) ([1]; wild-type thalamus): 2-3 Hz | SWD generation in thalamus (field recording) ([1]; α1G −/− thalamus): no such synchronized activities were observed | frequency of SWDs in epidural EEG ([2]; wild-type mice, 20 mg/kg): 3-4 Hz | SWD generation in epidural EEG ([2]; 20 mg/kg): marked resistance to the generation of SWDs

Nc1ccncc1 [4-AP, 4-aminopyridine]
mice that developed seizures ([3]; 2 mg/kg into the peritoneal cavity, C57BL/6J and 129/sv): 25% | mice that developed tonic-clonic seizures ([3]; 10 mg/kg into the peritoneal cavity, C57BL/6J and 129/sv): All of the mice | time to vigorous ictal discharges after injection ([3]; 10 mg/kg, both wild-type and α1G −/− mice): 30 to 40 min | severity of induced seizures graded by behavioral symptoms, wild-type versus α1G −/− mice ([3]; seizure score 0-4, 2 mg/kg and 10 mg/kg): no quantitative difference

C[N+]1(C)CCc2cc3c(cc2[C@H]1[C@@H]1OC(=O)c2c1ccc1c2OCO1)OCO3.[Br-] [BMB, bicucullinemethobromide]
time to initiation of seizure spikes in the cortex [4]: within five minutes | SWD generation in EEG ([4]; α1G −/− mice): exhibited SWD-like activities

O=C1CCCO1 [γ-butyrolactone]
frequency of paroxysmal SWDs in epidural EEG ([2]; wild-type mice, 70 mg/kg): 3-5 Hz | SWD generation in epidural EEG ([2]; 70 mg/kg): did not display typical SWD patterns
